Source: patent US8912213B2, “Synthesis and use of dual tyrosyl-DNA phosphodiesterase I (TDP1)- topoisomerase I (TOP1) inhibitors” (Purdue Research Foundation, priority 2012, dated 2014)
“Also recorded” adds a separate entry of the source. Where two headings read alike, the source gives them in different places. Each block holds one compound with its values, some of them ahead of it.

Assays:
Tdp1 = Tdp1 (Homo sapiens (Human), UniProt Q9NUW8); experiment: Gel-based assay measuring the inhibition of recombinant Tdp1; type: biochemical;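 note: 5′-32P-labeled single-stranded DNA with 3′-phosphotyrosine incubated with 5 pM enzyme for 15 min at room temperature, inhibition seen as loss of 3′-phosphate product band by densitometry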
Tdp1, sequence (Q9NUW8 whole entry): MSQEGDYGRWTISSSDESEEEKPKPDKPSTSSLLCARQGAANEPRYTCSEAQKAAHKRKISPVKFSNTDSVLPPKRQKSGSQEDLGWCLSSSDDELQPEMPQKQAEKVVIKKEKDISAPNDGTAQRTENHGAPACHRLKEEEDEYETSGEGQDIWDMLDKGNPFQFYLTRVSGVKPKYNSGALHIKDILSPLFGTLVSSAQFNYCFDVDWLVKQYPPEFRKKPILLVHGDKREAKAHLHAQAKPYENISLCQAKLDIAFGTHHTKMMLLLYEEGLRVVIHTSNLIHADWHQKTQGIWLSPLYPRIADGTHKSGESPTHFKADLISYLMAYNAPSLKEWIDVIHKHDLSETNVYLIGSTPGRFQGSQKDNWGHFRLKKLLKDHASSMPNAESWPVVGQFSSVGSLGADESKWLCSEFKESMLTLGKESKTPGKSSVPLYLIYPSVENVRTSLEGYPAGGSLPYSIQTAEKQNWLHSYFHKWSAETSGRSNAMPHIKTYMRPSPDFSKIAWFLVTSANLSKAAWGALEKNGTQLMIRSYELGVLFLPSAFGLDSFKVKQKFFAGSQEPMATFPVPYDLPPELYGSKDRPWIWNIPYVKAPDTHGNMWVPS
Protocol: Tdp1 inhibitory activity was measured by the drug's ability to inhibit the hydrolysis of the phosphodiester linkage between tyrosine and the 3′-end of the DNA substrate, and to prevent the generation of an oligonucleotide with a free 3′-phosphate (N14P). Therefore, the disappearance of the gel band for N14P indicated Tdp1 inhibition.
Gel-Based Assay Measuring the Inhibition of Recombinant Tdp1. A 5′-[^32P]-labeled single-stranded DNA oligonucleotide containing a 3′-phosphotyrosine (N14Y) was generated as described by Dexheimer et al. The DNA substrate was then incubated with 5 pM recombinant Tdp1 in the absence or presence of inhibitor for 15 min at room temperature in a buffer containing 50 mM Tris HCl, pH 7.5, 80 mM KCl, 2 mM EDTA, 1 mM DTT, 40 μg/ml BSA and 0.01% Tween-20. […] Gel images were scanned using a Typhoon 8600 (GE Healthcare) and densitometric analyses were performed using the ImageQuant software (GE Healthcare).

Human recombinant Top1 = Human recombinant Top1 (Homo sapiens (Human), UniProt P11387); experiment: Topoisomerase I-mediated DNA cleavage reactions; type: biochemical; conditions: for Top1 (compound-induced DNA cleavage, semiquantitative scale): series (B), relative to 1 μM camptothecin (90) or MJ-III-65 (91); for Top1 (compound-induced DNA cleavage due to Top1 inhibition): semiquantitative;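 for all read-outs here: 3′-end radiolabeled DNA substrate (about 2 nM) incubated with recombinant Top1 and compound for 20 min at 25 °C, cleavage products resolved by denaturing PAGE and phosphoimaging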
Human recombinant Top1, sequence (P11387 whole entry): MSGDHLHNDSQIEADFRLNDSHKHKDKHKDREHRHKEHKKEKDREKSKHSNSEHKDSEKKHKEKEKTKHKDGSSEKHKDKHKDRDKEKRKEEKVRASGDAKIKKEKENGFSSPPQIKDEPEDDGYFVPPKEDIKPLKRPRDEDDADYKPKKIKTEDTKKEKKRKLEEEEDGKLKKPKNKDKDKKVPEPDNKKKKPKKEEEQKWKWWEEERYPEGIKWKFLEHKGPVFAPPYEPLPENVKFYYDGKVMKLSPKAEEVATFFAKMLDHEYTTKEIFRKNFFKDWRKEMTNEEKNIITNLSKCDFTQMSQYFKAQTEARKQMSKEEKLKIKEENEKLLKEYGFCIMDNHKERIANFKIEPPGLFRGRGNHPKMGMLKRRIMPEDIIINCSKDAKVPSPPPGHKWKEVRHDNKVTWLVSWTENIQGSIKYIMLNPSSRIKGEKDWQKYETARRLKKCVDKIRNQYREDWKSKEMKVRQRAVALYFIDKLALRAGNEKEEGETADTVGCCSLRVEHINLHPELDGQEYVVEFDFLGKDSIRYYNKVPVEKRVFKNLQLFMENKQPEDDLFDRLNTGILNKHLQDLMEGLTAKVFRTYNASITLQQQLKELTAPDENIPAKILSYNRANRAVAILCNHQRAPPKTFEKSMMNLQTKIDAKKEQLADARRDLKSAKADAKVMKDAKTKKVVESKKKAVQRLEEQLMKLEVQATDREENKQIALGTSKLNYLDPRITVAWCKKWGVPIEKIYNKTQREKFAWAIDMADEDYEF
Protocol: Additionally, all indenoisoquinoline sulfonates and sulfonamides were tested for Top1 cleavage complex poisoning in a Top1-mediated DNA cleavage assay.
Topoisomerase I-Mediated DNA Cleavage Reactions. Human recombinant Top1 was purified from baculovirus as previously described. DNA cleavage reactions were prepared as previously reported with the exception of the DNA substrate. […] Unincorporated [^32P]dGTP was removed using mini Quick Spin DNA columns (Roche, Indianapolis, Ind.), and the eluate containing the 3′-end-labeled DNA substrate was collected. Approximately 2 nM radiolabeled DNA substrate was incubated with recombinant Top1 in 20 μL of reaction buffer [10 mM Tris-HCl (pH 7.5), 50 mM KCl, 5 mM MgCl2, 0.1 mM EDTA, and 15 μg/mL BSA] at 25° C. for 20 min in the presence of various concentrations of compounds. The reactions were terminated by adding SDS (0.5% final concentration) followed by the addition of two volumes of loading dye (80% formamide, 10 mM sodium hydroxide, 1 mM sodium EDTA, 0.1% xylene cyanol, and 0.1% bromphenol blue). Aliquots of each reaction mixture were subjected to 20% denaturing PAGE. Gels were dried and visualized by using a phosphoimager and ImageQuant software (Molecular Dynamics).
Topoisomerase I-Mediated DNA Cleavage Reactions. Top1 reactions were performed as recently described. […] The reactions were terminated by adding SDS (0.5% final concentration) followed by the addition of two volumes of loading dye (80% formamide, 10 mM sodium hydroxide, 1 mM sodium EDTA, 0.1% xylene cyanol, and 0.1% bromphenol blue). Reactions were subjected to 20% denaturing PAGE. Gels were dried and visualized by using a Typhoon 8600 and ImageQuant software (Molecular Dynamics).

HOP-62 = experiment: NCI screen cytotoxicity, lung HOP-62; type: cell-based; conditions: Homo sapiens, 50% growth inhibition
HCT-116 = experiment: NCI screen cytotoxicity, colon HCT-116; type: cell-based; conditions: Homo sapiens, 50% growth inhibition
UACC-62 = experiment: NCI screen cytotoxicity, melanoma UACC-62; type: cell-based; conditions: Homo sapiens, 50% growth inhibition
SN12C = experiment: NCI screen cytotoxicity, renal SN12C; type: cell-based; conditions: Homo sapiens, 50% growth inhibition
[1] = tested on: all human cancer cell lines successfully tested; experiment: NCI screen, mean graph midpoint (MGM) for growth inhibition; conditions: for GI50: Homo sapiens, read-out: MGM (μM); for MGM: series (B), mean graph midpoint GI50, ± standard error where two determinations
DU-145 = experiment: NCI screen cytotoxicity, prostate DU-145; type: cell-based; conditions: Homo sapiens, DU-145, read-out: Cytotoxicity (GI50 in μM) prostate DU-145; 50% growth inhibition
MDA-MB-435 = experiment: NCI screen cytotoxicity, breast MDA-MB-435; type: cell-based; conditions: Homo sapiens, MDA-MB-435, read-out: Cytotoxicity (GI50 in μM) breast MDA-MB-435; 50% growth inhibition
OVCAR-3 = experiment: NCI screen cytotoxicity, ovarian OVCAR-3; conditions: Homo sapiens, OVCAR-3, read-out: Cytotoxicity (GI50 in μM) ovarian OVCAR-3
[2] = series (A), gel-based assay, rec. human Tdp1, read-out: IC50 (μM) recombinant Tdp1

Structure (SMILES): CCOC(=O)CNc1ccc2c3c(n(C)c(=O)c2c1)-c1ccccc1C3=O [Compound 38 of (B), Ethyl 2-[(6-Methyl-5,11-dioxo-6,11-dihydro-5H-indeno[1,2-c]isoquinolin-3-yl)amino]acetate]
IC50 (Tdp1): > 111 µM | Tdp1 inhibitory activity (in words) (Tdp1; listed as 38): inactivity; also recorded: inactive | Top1 (compound-induced DNA cleavage, semiquantitative scale) (Human recombinant Top1): 0

Structure (SMILES): COC(=O)CCCCC(=O)Nc1ccc2c3c(n(C)c(=O)c2c1)-c1ccccc1C3=O [Compound 13 of (B), Methyl 6-[(6-Methyl-5,11-dioxo-6,11-dihydro-5H-indeno[1,2-c]isoquinolin-3-yl)amino]-6-oxohexanoate]
IC50 (Tdp1): > 111 µM | Top1 (compound-induced DNA cleavage, semiquantitative scale) (Human recombinant Top1): 0

Structure (SMILES): NCCCn1c2c(c3ccccc3c1=O)C(=O)c1ccccc1-2 [Compound 1 of (B)]
IC50 (Tdp1): 12 to 37 µM

Structure (SMILES): COc1ccc2c(c1)-c1c(c3ccc([N+](=O)[O-])cc3c(=O)n1CCCN=[N+]=[N-])C2=O [Compound 50 of (B), 6-(3-Azidopropyl)-5,6-dihydro-8-methoxy-3-nitro-5,11-dioxo-11H-indeno[1,2-c]isoquinoline]
IC50 (Tdp1): > 111 µM | Tdp1 inhibitory activity (in words) (Tdp1): very weak or inactive | Top1 (compound-induced DNA cleavage, semiquantitative scale) (Human recombinant Top1): +

Top1 inhibition (semiquantitative scale) (Human recombinant Top1; series (A), relative to 1 μM camptothecin): +++ (between 75% and 95% activity)
Structure (SMILES): Cl.NCCCCn1c2c(c3ccccc3c1=O)C(=O)c1ccccc1-2 [Compound 71 of (A)]

Structure (SMILES): COc1ccc2c(c1)-c1c(c3ccc([N+](=O)[O-])cc3c(=O)n1CCCBr)C2=O [Compound 49 of (B), 6-(3-Bromopropyl)-5,6-dihydro-8-methoxy-3-nitro-5,11-dioxo-11H-indeno[1,2-c]isoquinoline]
IC50 (Tdp1): > 111 µM | Tdp1 inhibitory activity (in words) (Tdp1): very weak or inactive | Top1 (compound-induced DNA cleavage, semiquantitative scale) (Human recombinant Top1): +++

Structure (SMILES): COc1ccc2c(c1)C(=O)c1c-2n(CCCN)c(=O)c2cc([N+](=O)[O-])ccc12 [Compound 54 of (B)]
GI50 (HOP-62): < 0.01 µM | GI50 (HCT-116): < 0.01 µM | GI50 (UACC-62): < 0.01 µM | GI50 (SN12C): < 0.01 µM | GI50 [1]: 0.02 µM | MGM ([1]; listed as 54): 0.02 ± 0.0008 µM

Structure (SMILES): Cl.NCCCn1c2c(c3ccc(NC(=O)CCCC(=O)O)cc3c1=O)C(=O)c1ccccc1-2 [Compound 35 of (B), 5-[(6-(3-Aminopropyl)-5,11-dioxo-6,11-dihydro-5H-indeno[1,2-c]isoquinolin-3-yl)amino]-5-oxopentanoic Acid Hydrochloride]
IC50 (Tdp1): > 111 µM | Top1 (compound-induced DNA cleavage, semiquantitative scale) (Human recombinant Top1): 0

Structure (SMILES): Cn1c2c(c3ccc(NCC(=O)O)cc3c1=O)C(=O)c1ccccc1-2 [Compound 41 of (B), 2-[(6-Methyl-5,11-dioxo-6,11-dihydro-5H-indeno[1,2-c]isoquinolin-3-yl)-amino]acetic Acid]
IC50 (Tdp1): > 111 µM | Tdp1 inhibitory activity (in words) (Tdp1; listed as 41): inactivity; also recorded: inactive | Top1 (compound-induced DNA cleavage, semiquantitative scale) (Human recombinant Top1): 0

IC50 (Tdp1; [2]): 15 µM | Top1 (compound-induced DNA cleavage due to Top1 inhibition) (Human recombinant Top1; relative to 1 μM camptothecin): 0/+
Structure (SMILES): Cl.NCCCCCCCCCCCCn1c2c(c3ccccc3c1=O)C(=O)c1ccccc1-2 [Compound 79 of (A)]

Structure (SMILES): Cl.NCCCn1c2c(c3ccc(NC(=O)CCC(=O)O)cc3c1=O)C(=O)c1ccccc1-2 [Compound 34 of (B), 4-[(6-(3-Aminopropyl)-5,11-dioxo-6,11-dihydro-5H-indeno[1,2-c]isoquinolin-3-yl)amino]-4-oxobutanoic Acid Hydrochloride]
IC50 (Tdp1): > 111 µM | Top1 (compound-induced DNA cleavage, semiquantitative scale) (Human recombinant Top1): +

Structure (SMILES): COC(=O)CCCC(=O)Nc1ccc2c3c(n(C)c(=O)c2c1)-c1ccccc1C3=O [Compound 12 of (B), Methyl 5-[(6-Methyl-5,11-dioxo-6,11-dihydro-5H-indeno[1,2-c]isoquinolin-3-yl)amino]-5-oxopentanoate]
IC50 (Tdp1): > 111 µM | Top1 (compound-induced DNA cleavage, semiquantitative scale) (Human recombinant Top1): +

Structure (SMILES): COC(=O)C(=O)Nc1ccc2c3c(n(C)c(=O)c2c1)-c1ccccc1C3=O [Compound 9 of (B), Methyl 2-[(6-Methyl-5,11-dioxo-6,11-dihydro-5H-indeno[1,2-c]isoquinolin-3-yl)amino]-2-oxoacetate]
IC50 (Tdp1): > 111 µM | Tdp1 inhibitory activity (in words) (Tdp1): inactive | Top1 (compound-induced DNA cleavage, semiquantitative scale) (Human recombinant Top1): 0

Structure (SMILES): COc1ccc2c(c1)-c1c(c3ccc([N+](=O)[O-])cc3c(=O)n1CCCN1CCOCC1)C2=O [Compound 53 of (B), 8-Methoxy-6-(3-morpholinopropyl)-3-nitro-5H-indeno[1,2-c]isoquinoline-5,11(6H)-dione]
IC50 (Tdp1): > 111 µM | Tdp1 inhibitory activity (in words) (Tdp1): very weak or inactive | Top1 (compound-induced DNA cleavage, semiquantitative scale) (Human recombinant Top1): ++

IC50 (Tdp1; [2]): 13 µM | Top1 (compound-induced DNA cleavage due to Top1 inhibition) (Human recombinant Top1; relative to 1 μM camptothecin): + (between 20 and 50%, activity)
Structure (SMILES): Cl.NCCCCCCCCCCCn1c2c(c3ccccc3c1=O)C(=O)c1ccccc1-2 [Compound 78 of (A)]

Structure (SMILES): CC(C)(C)OC(=O)NCCCn1c2c(c3ccc(NCC(=O)O)cc3c1=O)C(=O)c1ccccc1-2 [Compound 42 of (B), 2-((6-(3-((tert-Butoxycarbonyl)amino)propyl)-5,11-dioxo-6,11-dihydro-5H-indeno[1,2-c]isoquinolin-3-yl)amino)acetic Acid]
IC50 (Tdp1): > 111 µM | Tdp1 inhibitory activity (in words) (Tdp1): inactivity | Top1 (compound-induced DNA cleavage, semiquantitative scale) (Human recombinant Top1): 0

Structure (SMILES): COC(=O)CC(=O)Nc1ccc2c3c(n(C)c(=O)c2c1)-c1ccccc1C3=O [Compound 10 of (B), Methyl 3-[(6-Methyl-5,11-dioxo-6,11-dihydro-5H-indeno[1,2-c]isoquinolin-3-yl)amino]-3-oxopropanoate]
IC50 (Tdp1): > 111 µM | Top1 (compound-induced DNA cleavage, semiquantitative scale) (Human recombinant Top1): 0

Structure (SMILES): COC(=O)CCC(=O)Nc1ccc2c3c(n(CCCN)c(=O)c2c1)-c1ccccc1C3=O [Compound 24 of (B), Methyl 4-[(6-(3-Aminopropyl)-5,11-dioxo-6,11-dihydro-5H-indeno[1,2-c]isoquinolin-3-yl)amino]-4-oxobutanoate]
IC50 (Tdp1): 37 to 111 µM | Top1 (compound-induced DNA cleavage, semiquantitative scale) (Human recombinant Top1): (+)

Structure (SMILES): O=C1c2ccccc2-c2c1c1ccc([N+](=O)[O-])cc1c(=O)n2CCCO [Compound 63 of (B)]
GI50 (HCT-116): 0.19 µM | GI50 (UACC-62): 0.31 µM | GI50 (SN12C): 0.47 µM | GI50 (DU-145): 0.43 µM | GI50 (MDA-MB-435): 1.97 µM | GI50 (OVCAR-3): 0.87 µM | GI50 [1]: 0.89 ± 0.22 µM

Structure (SMILES): Cn1c2c(c3ccc(NC(=O)CC(=O)O)cc3c1=O)C(=O)c1ccccc1-2 [Compound 15 of (B), 3-[(6-Methyl-5,11-dioxo-6,11-dihydro-5H-indeno[1,2-c]isoquinolin-3-yl)amino]-3-oxopropanoic Acid]
IC50 (Tdp1): > 111 µM | Tdp1 inhibitory activity (in words) (Tdp1): inactive

Structure (SMILES): Cl.NCCCn1c2c(c3ccc(NC(=O)CCCCC(=O)O)cc3c1=O)C(=O)c1ccccc1-2 [Compound 36 of (B), 6-[(6-(3-Aminopropyl)-5,11-dioxo-6,11-dihydro-5H-indeno[1,2-c]isoquinolin-3-yl)amino]-6-oxohexanoic Acid Hydrochloride]
IC50 (Tdp1): > 111 µM | Top1 (compound-induced DNA cleavage, semiquantitative scale) (Human recombinant Top1): +

Structure (SMILES): Cl.NCCCn1c2c(c3ccc(NC(=O)C(=O)O)cc3c1=O)C(=O)c1ccccc1-2 [Compound 32 of (B), 2-[(6-(3-Aminopropyl)-5,11-dioxo-6,11-dihydro-5H-indeno[1,2-c]isoquinolin-3-yl)amino]-2-oxoacetic Acid Hydrochloride]
IC50 (Tdp1): > 111 µM | Top1 (compound-induced DNA cleavage, semiquantitative scale) (Human recombinant Top1): +

Structure (SMILES): COc1ccc2c(c1)-c1c(c3ccc([N+](=O)[O-])cc3c(=O)n1CCCn1ccnc1)C2=O [Compound 52 of (B), 6-(3-(1H-Imidazol-1-yl)propyl)-8-methoxy-3-nitro-5H-indeno[1,2-c]isoquinoline-5,11(6H)-dione]
Tdp1 (IC50, semiquantitative scale) (Tdp1): (+) | Tdp1 inhibitory activity (in words) (Tdp1): very weak or inactive | suppression of DNA cleavage at high drug concentration (Human recombinant Top1; 100 μM): slight suppression | Top1 (compound-induced DNA cleavage, semiquantitative scale) (Human recombinant Top1): +++ | GI50 (HOP-62): < 0.01 µM | GI50 (HCT-116): < 0.01 µM | GI50 (UACC-62): < 0.01 µM | GI50 (SN12C): < 0.01 µM | GI50 (DU-145): < 0.01 µM | GI50 (MDA-MB-435): 0.03 µM | GI50 (OVCAR-3): 0.03 µM | GI50 [1]: 0.02 µM | MGM ([1]; listed as 52): 0.02 ± 0.0006 µM

Structure (SMILES): Cl.NCCCn1c2c(c3ccc(NC(=O)CC(=O)O)cc3c1=O)C(=O)c1ccccc1-2 [Compound 33 of (B), 3-[(6-(3-Aminopropyl)-5,11-dioxo-6,11-dihydro-5H-indeno[1,2-c]isoquinolin-3-yl)amino]-3-oxopropanoic Acid Hydrochloride]
IC50 (Tdp1): > 111 µM | Top1 (compound-induced DNA cleavage, semiquantitative scale) (Human recombinant Top1): +

Structure (SMILES): COC(=O)CCC(=O)Nc1ccc2c3c(n(C)c(=O)c2c1)-c1ccccc1C3=O [Compound 11 of (B), Methyl 4-[(6-Methyl-5,11-dioxo-6,11-dihydro-5H-indeno[1,2-c]isoquinolin-3-yl)amino]-4-oxobutanoate]
IC50 (Tdp1): > 111 µM | Top1 (compound-induced DNA cleavage, semiquantitative scale) (Human recombinant Top1): (+)
